Test systems include OVCAR-8; TK-10; HOP-62; MOLT-4; SN12C; UACC-257; NCI-H23; LOX IMVI; SK-MEL-5; SK-MEL-2; U-251; RPMI-8226; SF-295; ACHN; COLO 205; KM-20L2; UACC-62; DLD-1; A498; DMS-273.
Assay in all cases: NCI tumour cell line growth inhibition, 48 h

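Exposure lasted 48 hours, with cells grown in 96-well plates and compounds tested at five concentrations. Abbreviation: GI50, concentration required for 50% inhibition of growth.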 Activity calls are given as the source filed them. Cut-off read from the data, not from the text of the source: active = GI50 up to about 1.1 µM and inactive = higher.

In the case of `O=c1[nH]nc(NCc2ccccc2)c2nnn(Cc3ccccc3)c12`, the GI50 with OVCAR-8, in the assay on TK-10, in the assay with HOP-62, in the assay on MOLT-4, in the assay on SN12C and in the assay with UACC-257 was > 100 µM (inactive) each time. Further, the GI50 with NCI-H23, in the assay with LOX IMVI, with SK-MEL-5, with SK-MEL-2, in the assay on U-251 and in the assay on RPMI-8226 was > 100 µM (inactive) each time. Also, the GI50 in the assay on SF-295, in the assay on ACHN and in the assay with COLO 205 was > 100 µM (inactive) throughout.

For `O=C1NC(=O)C2(CCc3ccc(N(CCCl)CCCl)cc32)N1` (centres undefined), the GI50 in the assay with OVCAR-8 is 14.1 µM (inactive); in the assay with KM-20L2, 19.5 µM (inactive); with HOP-62, 9.91 µM (inactive); in the assay on MOLT-4 it was 0.931 µM (active); in the assay with SN12C, 5.37 µM (inactive); in the assay on UACC-257, 16.4 µM (inactive). The GI50 in the assay with UACC-62 is 4.33 µM (inactive); in the assay on NCI-H23 it was 6.5 µM (inactive); in the assay on DLD-1 it was 19 µM (inactive); with LOX IMVI, 8.99 µM (inactive); in the assay with SK-MEL-5, 13.5 µM (inactive); with SK-MEL-2, 21.7 µM (inactive). Further, the GI50 was 6.78 µM (inactive) with U-251; 19.7 µM (inactive) in the assay with RPMI-8226; 16.9 µM (inactive) in the assay with A498; 7.5 µM (inactive) with SF-295; 12.3 µM (inactive) in the assay on COLO 205; 2.94 µM (inactive) in the assay with DMS-273.

For the compound `CC(SC1=CC(=O)c2c(Cl)ccc(O)c2C1=O)C(=O)O` (centres undefined), the GI50 is 18.2 µM (inactive) in the assay with OVCAR-8; 74.6 µM (inactive) in the assay with KM-20L2; 20.7 µM (inactive) with TK-10; 18.5 µM (inactive) in the assay on MOLT-4; 16.7 µM (inactive) in the assay on SN12C; 15.8 µM (inactive) in the assay with UACC-257. For the same compound, the GI50 was > 10 µM (inactive) with NCI-H23; 17.3 µM (inactive) with DLD-1; 10.1 µM (inactive) with LOX IMVI; 14.3 µM (inactive) with SK-MEL-5; 17.5 µM (inactive) in the assay with SK-MEL-2; 17.7 µM (inactive) in the assay with U-251. Further, the GI50 in the assay with RPMI-8226 was 19.8 µM (inactive); in the assay with A498 it was 67.1 µM (inactive); with SF-295 it was 19 µM (inactive); in the assay with COLO 205, 21.3 µM (inactive); in the assay with DMS-273, 18.1 µM (inactive).

Turning to `NC(CCOCCP(=O)(O)O)C(=O)O` (centres undefined), the GI50 in the assay with OVCAR-8 was > 100 µM (inactive); with TK-10, > 100 µM (inactive); with MOLT-4, > 100 µM (inactive); with SN12C, > 100 µM (inactive); in the assay on UACC-257 it was > 100 µM (inactive); in the assay on UACC-62, 56.5 µM (inactive). In addition, the GI50 in the assay with NCI-H23, with LOX IMVI, with SK-MEL-5, in the assay with SK-MEL-2, with U-251 and with RPMI-8226 was > 100 µM (inactive) in each case. Moreover, the GI50 in the assay with SF-295, in the assay on ACHN and in the assay on COLO 205 was > 100 µM (inactive) throughout.

Turning to `CC1C(=O)OC2CC[N+]3(CC(=O)c4ccc(Br)cc4)CC=C(COC(=O)C(C)(O)C1(C)O)C23` (centres undefined), the GI50 with OVCAR-8 is 37.5 µM (inactive); in the assay on KM-20L2 it was > 37.5 µM (inactive); in the assay with HOP-62, > 375 µM (inactive); in the assay with MOLT-4, > 375 µM (inactive); in the assay with SN12C, > 375 µM (inactive); in the assay with UACC-257 it was > 375 µM (inactive). Moreover, the GI50 in the assay with UACC-62, in the assay on NCI-H23, in the assay on DLD-1, in the assay with LOX IMVI, in the assay on SK-MEL-5 and in the assay on SK-MEL-2 was > 375 µM (inactive) in each case. The GI50 in the assay with U-251 is > 375 µM (inactive); in the assay on RPMI-8226 it was > 375 µM (inactive); with A498, > 375 µM (inactive); in the assay on SF-295, > 375 µM (inactive); in the assay on COLO 205, > 375 µM (inactive); in the assay on DMS-273 it was > 128 µM (inactive).

With `CC1C(O)[C@@]2(OC[C@@]34C(=O)CC5(O)[C@H](CCC6Cc7nc8c(nc7C[C@]65C)CC5CC[C@@H]6C7=C[C@H]9O[C@@]%10(O[C@@](C)(CO)C[C@@H]%10O)C(C)[C@@]9(O)[C@]7(C)[C@@H](O)CC6[C@]5(C)C8)C3=CC[C@H]4C2C)OC1(C)C` (some centres undefined), the GI50 with OVCAR-8 is 0.247 µM (active); with KM-20L2 it was 0.000796 µM (active); with HOP-62, < 0.000355 µM (active); in the assay on MOLT-4, < 0.000355 µM (active); with SN12C, 0.628 µM (active); with UACC-257, 0.00524 µM (active). Further, the GI50 is < 0.000355 µM (active) in the assay on UACC-62; 0.00127 µM (active) in the assay with NCI-H23; 0.0607 µM (active) with DLD-1; < 0.000355 µM (active) in the assay on LOX IMVI; 0.00667 µM (active) with SK-MEL-5; 0.000524 µM (active) with SK-MEL-2. Besides, the GI50 in the assay on U-251 was < 0.000355 µM (active); in the assay with RPMI-8226, < 0.000355 µM (active); in the assay on A498, < 0.000355 µM (active); in the assay on SF-295 it was < 0.000355 µM (active); in the assay with COLO 205, 0.00532 µM (active); in the assay with DMS-273, < 0.000355 µM (active).

For `Nc1nc(=O)[nH][nH]1`, the GI50 in the assay with OVCAR-8, with KM-20L2, in the assay with HOP-62, with MOLT-4, with SN12C and with UACC-257 was > 100 µM (inactive) each time. Moreover, the GI50 with UACC-62, with NCI-H23, with DLD-1, in the assay on LOX IMVI, in the assay with SK-MEL-5 and in the assay on SK-MEL-2 was > 100 µM (inactive) each time. Besides, the GI50 in the assay with U-251, with RPMI-8226, in the assay with A498, in the assay with SF-295, with COLO 205 and with DMS-273 was > 100 µM (inactive) each time.

For `C[Si](C)(OCCS(=O)(=O)O)C1(Cc2cccc3ccccc23)S(=O)(=O)OCCOS1(=O)=O`, the GI50 was 19.5 µM (inactive) in the assay with OVCAR-8; 20.9 µM (inactive) in the assay on TK-10; 19.6 µM (inactive) in the assay on HOP-62; 34.9 µM (inactive) in the assay with MOLT-4; 18.2 µM (inactive) with SN12C; 28.1 µM (inactive) in the assay with UACC-257. Further, the GI50 was 17.9 µM (inactive) in the assay with UACC-62; 27.8 µM (inactive) in the assay with NCI-H23; 16.2 µM (inactive) in the assay with LOX IMVI; 17.3 µM (inactive) in the assay on SK-MEL-5; 18.9 µM (inactive) in the assay with SK-MEL-2; 20.3 µM (inactive) with U-251. For the same compound, the GI50 was 18.4 µM (inactive) in the assay with RPMI-8226; 15.9 µM (inactive) with A498; 20.2 µM (inactive) in the assay on SF-295; 18.1 µM (inactive) in the assay with ACHN; 12.3 µM (inactive) with COLO 205.

With `OC[C@H]1NC[C@@H](O)[C@@H](O)[C@H]1O`, the GI50 in the assay on OVCAR-8, in the assay with TK-10, with HOP-62, in the assay on MOLT-4, with SN12C and in the assay on UACC-257 was > 100 µM (inactive) throughout. Besides, the GI50 in the assay on UACC-62, with NCI-H23, in the assay on LOX IMVI, with SK-MEL-5, in the assay on SK-MEL-2 and in the assay on U-251 was > 100 µM (inactive) each time. For the same compound, the GI50 in the assay on RPMI-8226, in the assay on A498, in the assay on SF-295 and in the assay on COLO 205 was > 100 µM (inactive) each time.

For `N=S(=O)(c1ccccc1)c1ccccc1`, the GI50 in the assay on OVCAR-8 is > 100 µM (inactive); with KM-20L2 it was > 100 µM (inactive); in the assay with HOP-62 it was > 100 µM (inactive); in the assay on MOLT-4 it was 22 µM (inactive); in the assay with SN12C, > 100 µM (inactive); in the assay with UACC-257 it was > 100 µM (inactive). Moreover, the GI50 in the assay with UACC-62, in the assay on NCI-H23, in the assay with DLD-1, with LOX IMVI, with SK-MEL-5 and in the assay on SK-MEL-2 was > 100 µM (inactive) throughout. Further, the GI50 in the assay on U-251, with RPMI-8226, in the assay on A498, with SF-295, in the assay on ACHN and in the assay with COLO 205 was > 100 µM (inactive) each time.

For the compound `COc1ccc(C2C(C(=O)O)=C(CO)Oc3cc4c(cc32)OCO4)cc1` (centres undefined), the GI50 with OVCAR-8 was > 100 µM (inactive); in the assay on KM-20L2 it was > 100 µM (inactive); in the assay on TK-10, > 100 µM (inactive); with HOP-62, 32.5 µM (inactive); in the assay with MOLT-4, > 10 µM (inactive); in the assay with SN12C it was > 100 µM (inactive). Further, the GI50 in the assay on UACC-257, with UACC-62, in the assay with NCI-H23, in the assay on DLD-1, in the assay with LOX IMVI and in the assay with SK-MEL-5 was > 100 µM (inactive) each time. Also, the GI50 in the assay on SK-MEL-2, in the assay with U-251, in the assay on RPMI-8226, in the assay on SF-295, with ACHN and in the assay on COLO 205 was > 100 µM (inactive) throughout. Moreover, the GI50 with DMS-273 was > 100 µM (inactive).

Values taken from ChEMBL document CHEMBL1201862, “PubChem BioAssay data set” (2004).
